Reference: patent publication US11117892B2, “Pyrrolo-pyridine derivative compound, method for preparing same, and pharmaceutical composition containing same as active ingredient for prevention or treatment of protein kinase-related diseases” (DAEGU-GYEONGBUK MEDICAL INNOVATION FOUNDATION, priority 2017, dated 2021)

Key:
Experiment in all cases: scanMAX Kinase assay panel
Assay type in all cases: binding
[1] = target: EGFR(L747-E749del, A750P) (Homo sapiens (Human), UniProt P00533, A750P/DEL747-749); settings: read-out: % control
How it was run: (§1)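 % control read-out: DMSO vehicle = 100%, positive control = 0%, test compound scaled between these two. Selectivity profiling was done on the scanMAX kinase panel.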

VPS34 = VPS34 (Homo sapiens (Human), UniProt Q8NEB9); settings: read-out: % control
How it was run: as §1

DMPK = DMPK (Homo sapiens (Human), UniProt Q09013); settings: read-out: % control
How it was run: as §1

WNK4 = WNK4 (Homo sapiens (Human), UniProt Q96J92); settings: read-out: % control
How it was run: as §1

NEK4 = NEK4 (Homo sapiens (Human), UniProt P51957); settings: read-out: % control
How it was run: as §1

YANK3 = YANK3 (Homo sapiens (Human), UniProt Q86UX6); settings: read-out: % control
How it was run: as §1

CAMK4 = CAMK4 (Homo sapiens (Human), UniProt Q16566); settings: read-out: % control
Chain of CAMK4 (Q16566 whole entry): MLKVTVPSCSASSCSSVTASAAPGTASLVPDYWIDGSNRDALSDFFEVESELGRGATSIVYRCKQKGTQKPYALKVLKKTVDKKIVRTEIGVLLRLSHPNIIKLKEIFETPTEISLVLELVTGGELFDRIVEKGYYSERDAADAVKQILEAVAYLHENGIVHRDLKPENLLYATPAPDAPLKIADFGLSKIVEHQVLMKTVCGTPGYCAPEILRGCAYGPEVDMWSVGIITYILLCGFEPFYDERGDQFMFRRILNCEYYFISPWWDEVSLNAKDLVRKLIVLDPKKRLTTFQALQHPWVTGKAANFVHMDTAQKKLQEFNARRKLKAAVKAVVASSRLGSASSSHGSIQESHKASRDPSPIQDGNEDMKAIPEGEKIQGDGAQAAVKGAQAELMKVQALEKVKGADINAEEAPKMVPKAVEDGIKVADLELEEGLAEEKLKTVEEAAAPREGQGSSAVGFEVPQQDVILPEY
How it was run: as §1

TYRO3 = TYRO3 (Homo sapiens (Human), UniProt Q06418); settings: read-out: % control
How it was run: as §1

FLT3(D835Y) = FLT3(D835Y) (Homo sapiens (Human), UniProt P36888, D835Y); settings: read-out: % control
How it was run: as §1

YANK2 = YANK2 (Homo sapiens (Human), UniProt Q9NY57); settings: read-out: % control
How it was run: as §1

MINK = MINK (Homo sapiens (Human), UniProt Q8N4C8); settings: read-out: % control
How it was run: as §1

MLK1 = MLK1 (Homo sapiens (Human), UniProt P80192); settings: read-out: % control
Chain of MLK1 (P80192 whole entry): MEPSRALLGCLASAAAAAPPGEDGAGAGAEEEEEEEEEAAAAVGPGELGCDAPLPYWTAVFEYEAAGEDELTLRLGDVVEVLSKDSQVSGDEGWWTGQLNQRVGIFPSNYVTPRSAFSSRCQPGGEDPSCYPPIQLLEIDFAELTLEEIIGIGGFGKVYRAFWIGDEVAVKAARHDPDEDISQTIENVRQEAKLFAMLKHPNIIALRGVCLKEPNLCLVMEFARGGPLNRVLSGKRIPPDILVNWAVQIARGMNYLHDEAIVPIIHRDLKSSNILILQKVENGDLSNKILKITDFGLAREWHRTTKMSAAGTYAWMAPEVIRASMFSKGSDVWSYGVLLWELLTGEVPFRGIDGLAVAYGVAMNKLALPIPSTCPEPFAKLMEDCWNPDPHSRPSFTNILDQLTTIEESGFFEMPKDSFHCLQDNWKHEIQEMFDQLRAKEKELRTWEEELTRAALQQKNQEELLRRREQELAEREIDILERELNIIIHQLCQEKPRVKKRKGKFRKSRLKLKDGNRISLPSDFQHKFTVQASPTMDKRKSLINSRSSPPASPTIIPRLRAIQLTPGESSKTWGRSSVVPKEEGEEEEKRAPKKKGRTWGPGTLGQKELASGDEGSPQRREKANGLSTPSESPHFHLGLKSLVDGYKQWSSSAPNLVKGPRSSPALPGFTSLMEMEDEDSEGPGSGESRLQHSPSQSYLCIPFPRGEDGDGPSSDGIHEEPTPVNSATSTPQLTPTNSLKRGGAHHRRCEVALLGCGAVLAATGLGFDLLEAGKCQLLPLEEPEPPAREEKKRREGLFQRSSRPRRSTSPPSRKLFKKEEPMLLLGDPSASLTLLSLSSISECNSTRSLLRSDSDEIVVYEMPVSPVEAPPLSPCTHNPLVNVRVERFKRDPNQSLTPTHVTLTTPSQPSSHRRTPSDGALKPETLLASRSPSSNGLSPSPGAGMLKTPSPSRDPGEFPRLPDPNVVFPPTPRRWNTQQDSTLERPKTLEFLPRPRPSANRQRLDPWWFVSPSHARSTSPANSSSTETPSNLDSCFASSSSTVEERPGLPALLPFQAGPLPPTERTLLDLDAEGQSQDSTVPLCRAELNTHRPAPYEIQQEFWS
How it was run: as §1

PRKG1 = PRKG1 (Homo sapiens (Human), UniProt Q13976); settings: read-out: % control
How it was run: as §1

FRK = FRK (Homo sapiens (Human), UniProt P42685); settings: read-out: % control
How it was run: as §1

LCK = LCK (Homo sapiens (Human), UniProt P06239); settings: read-out: % control
How it was run: as §1

ERN1 = ERN1 (Homo sapiens (Human), UniProt O75460); settings: read-out: % control
How it was run: as §1

EPHA8 = EPHA8 (Homo sapiens (Human), UniProt P29322); settings: read-out: % control
How it was run: as §1

EPHA6 = EPHA6 (Homo sapiens (Human), UniProt Q9UF33); settings: read-out: % control
How it was run: as §1

ERBB4 = ERBB4 (Homo sapiens (Human), UniProt Q15303); settings: read-out: % control
Chain of ERBB4 (Q15303 26-1308): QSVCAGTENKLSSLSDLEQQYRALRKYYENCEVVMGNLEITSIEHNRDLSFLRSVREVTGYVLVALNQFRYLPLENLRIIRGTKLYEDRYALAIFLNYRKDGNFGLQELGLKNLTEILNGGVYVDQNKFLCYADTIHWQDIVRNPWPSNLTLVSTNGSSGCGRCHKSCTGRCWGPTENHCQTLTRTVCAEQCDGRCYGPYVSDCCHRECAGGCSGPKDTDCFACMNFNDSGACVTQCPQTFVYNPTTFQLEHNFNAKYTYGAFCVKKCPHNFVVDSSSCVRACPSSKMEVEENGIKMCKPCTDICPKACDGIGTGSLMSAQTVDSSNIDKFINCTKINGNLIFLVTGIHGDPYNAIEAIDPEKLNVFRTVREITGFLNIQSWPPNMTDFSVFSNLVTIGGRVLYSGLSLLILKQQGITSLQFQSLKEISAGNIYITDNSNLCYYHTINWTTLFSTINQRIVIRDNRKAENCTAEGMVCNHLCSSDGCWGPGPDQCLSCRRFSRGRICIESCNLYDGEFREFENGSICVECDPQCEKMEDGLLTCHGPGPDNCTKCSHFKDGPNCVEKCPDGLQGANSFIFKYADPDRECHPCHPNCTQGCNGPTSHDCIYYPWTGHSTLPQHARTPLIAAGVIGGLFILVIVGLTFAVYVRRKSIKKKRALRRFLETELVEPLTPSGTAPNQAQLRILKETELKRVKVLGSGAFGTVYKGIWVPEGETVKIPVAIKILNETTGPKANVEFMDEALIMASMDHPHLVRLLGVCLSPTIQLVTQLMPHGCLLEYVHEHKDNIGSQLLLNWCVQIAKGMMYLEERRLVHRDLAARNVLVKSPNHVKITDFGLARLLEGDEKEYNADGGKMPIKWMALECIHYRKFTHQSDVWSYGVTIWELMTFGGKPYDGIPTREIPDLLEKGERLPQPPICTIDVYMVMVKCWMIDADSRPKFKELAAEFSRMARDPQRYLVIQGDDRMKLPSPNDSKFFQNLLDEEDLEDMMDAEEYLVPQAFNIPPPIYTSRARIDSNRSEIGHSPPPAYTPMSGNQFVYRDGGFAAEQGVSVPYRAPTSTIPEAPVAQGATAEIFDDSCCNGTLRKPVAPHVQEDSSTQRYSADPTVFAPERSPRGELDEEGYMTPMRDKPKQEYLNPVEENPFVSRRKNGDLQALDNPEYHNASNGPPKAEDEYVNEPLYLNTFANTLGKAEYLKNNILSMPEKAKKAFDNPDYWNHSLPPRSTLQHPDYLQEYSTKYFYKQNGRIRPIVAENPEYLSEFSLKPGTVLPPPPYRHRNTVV
How it was run: as §1

PIP5K2B = PIP5K2B (Homo sapiens (Human), UniProt P78356); settings: read-out: % control
Chain of PIP5K2B (P78356 whole entry): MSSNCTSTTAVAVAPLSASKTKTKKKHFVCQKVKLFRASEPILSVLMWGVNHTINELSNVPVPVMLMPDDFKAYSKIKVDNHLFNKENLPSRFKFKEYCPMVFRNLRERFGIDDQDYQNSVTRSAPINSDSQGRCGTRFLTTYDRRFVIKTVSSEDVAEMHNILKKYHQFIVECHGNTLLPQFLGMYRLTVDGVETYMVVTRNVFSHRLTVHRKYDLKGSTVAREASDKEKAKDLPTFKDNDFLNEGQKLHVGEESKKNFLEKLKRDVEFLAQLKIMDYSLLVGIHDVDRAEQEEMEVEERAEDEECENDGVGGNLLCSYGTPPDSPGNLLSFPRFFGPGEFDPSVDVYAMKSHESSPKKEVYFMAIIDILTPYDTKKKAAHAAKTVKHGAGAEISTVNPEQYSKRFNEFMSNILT
How it was run: as §1

AURKA = AURKA (Homo sapiens (Human), UniProt O14965); settings: read-out: % control
How it was run: as §1

[2] = target: ABL1(T315I)-phosphorylated (Homo sapiens (Human), UniProt P00519, T315I); settings: read-out: % control
How it was run: as §1

FLT3(N841I) = FLT3(N841I) (Homo sapiens (Human), UniProt P36888, N841I); settings: read-out: % control
How it was run: as §1

AXL = AXL (Homo sapiens (Human), UniProt P30530); settings: read-out: % control
How it was run: as §1

YSK4 = YSK4 (Homo sapiens (Human), UniProt Q56UN5); settings: read-out: % control
How it was run: as §1

MAP3K4 = MAP3K4 (Homo sapiens (Human), UniProt Q9Y6R4); settings: read-out: % control
How it was run: as §1

EGFR(G719S) = EGFR(G719S) (Homo sapiens (Human), UniProt P00533, G719S); settings: read-out: % control
How it was run: as §1

MYLK2 = MYLK2 (Homo sapiens (Human), UniProt Q9H1R3); settings: read-out: % control
How it was run: as §1

MERTK = MERTK (Homo sapiens (Human), UniProt Q12866); settings: read-out: % control
Chain of MERTK (Q12866 21-999): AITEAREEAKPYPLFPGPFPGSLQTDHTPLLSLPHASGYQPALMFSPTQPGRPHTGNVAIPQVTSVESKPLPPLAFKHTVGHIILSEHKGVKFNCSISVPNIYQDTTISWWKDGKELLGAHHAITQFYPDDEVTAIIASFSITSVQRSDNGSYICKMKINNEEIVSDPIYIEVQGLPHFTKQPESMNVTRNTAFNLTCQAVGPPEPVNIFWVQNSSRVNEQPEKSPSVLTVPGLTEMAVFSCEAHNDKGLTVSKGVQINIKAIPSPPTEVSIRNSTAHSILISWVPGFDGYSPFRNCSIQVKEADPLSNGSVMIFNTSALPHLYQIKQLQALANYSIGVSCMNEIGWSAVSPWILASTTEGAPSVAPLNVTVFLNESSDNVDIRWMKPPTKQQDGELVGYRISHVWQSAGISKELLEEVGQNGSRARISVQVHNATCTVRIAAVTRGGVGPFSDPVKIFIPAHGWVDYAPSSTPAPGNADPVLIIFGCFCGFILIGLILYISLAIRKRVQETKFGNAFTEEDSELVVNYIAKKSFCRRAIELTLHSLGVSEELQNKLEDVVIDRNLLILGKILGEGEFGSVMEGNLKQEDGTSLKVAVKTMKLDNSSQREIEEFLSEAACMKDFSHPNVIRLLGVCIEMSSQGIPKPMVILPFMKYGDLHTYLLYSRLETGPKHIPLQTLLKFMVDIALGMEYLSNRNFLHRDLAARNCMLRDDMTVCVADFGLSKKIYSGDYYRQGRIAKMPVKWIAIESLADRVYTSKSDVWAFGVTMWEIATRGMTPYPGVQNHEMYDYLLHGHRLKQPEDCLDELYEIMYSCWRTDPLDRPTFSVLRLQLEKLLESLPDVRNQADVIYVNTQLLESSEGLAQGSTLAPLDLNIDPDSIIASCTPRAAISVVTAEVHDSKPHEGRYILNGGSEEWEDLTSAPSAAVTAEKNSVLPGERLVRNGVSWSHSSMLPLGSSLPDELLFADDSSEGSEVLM
How it was run: as §1

ZAP70 = ZAP70 (Homo sapiens (Human), UniProt P43403); settings: read-out: % control
How it was run: as §1

[3] = target: JAK1(JH1domain-catalytic) (Homo sapiens (Human), UniProt P23458); settings: read-out: % control
Chain of JAK1(JH1domain-catalytic) (P23458 875-1153): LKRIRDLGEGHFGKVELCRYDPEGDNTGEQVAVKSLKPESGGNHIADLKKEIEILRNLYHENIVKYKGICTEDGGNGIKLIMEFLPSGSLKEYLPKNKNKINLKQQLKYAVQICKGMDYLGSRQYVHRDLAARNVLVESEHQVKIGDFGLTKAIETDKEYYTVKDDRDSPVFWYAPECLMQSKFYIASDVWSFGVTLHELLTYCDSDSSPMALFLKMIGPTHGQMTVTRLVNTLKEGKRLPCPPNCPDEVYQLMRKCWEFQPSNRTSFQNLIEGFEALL
How it was run: as §1

CAMK2D = CAMK2D (Homo sapiens (Human), UniProt Q13557); settings: read-out: % control
How it was run: as §1

[4] = target: RSK4(Kin.Dom.2-C-terminal) (Homo sapiens (Human), UniProt Q9UK32); settings: read-out: % control
How it was run: as §1

FLT3(ITD) = settings: 1 uM
How it was run: as §1

PRKCE = PRKCE (Homo sapiens (Human), UniProt Q02156); settings: read-out: % control
How it was run: as §1

CDK8 = CDK8 (Homo sapiens (Human), UniProt P49336); settings: read-out: % control
How it was run: as §1

[5] = target: ABL1(Q252H)-nonphosphorylated (Homo sapiens (Human), UniProt P00519, Q252H); settings: read-out: % control
How it was run: as §1

ACVR2A = ACVR2A (Homo sapiens (Human), UniProt P27037); settings: read-out: % control
Chain of ACVR2A (P27037 20-513): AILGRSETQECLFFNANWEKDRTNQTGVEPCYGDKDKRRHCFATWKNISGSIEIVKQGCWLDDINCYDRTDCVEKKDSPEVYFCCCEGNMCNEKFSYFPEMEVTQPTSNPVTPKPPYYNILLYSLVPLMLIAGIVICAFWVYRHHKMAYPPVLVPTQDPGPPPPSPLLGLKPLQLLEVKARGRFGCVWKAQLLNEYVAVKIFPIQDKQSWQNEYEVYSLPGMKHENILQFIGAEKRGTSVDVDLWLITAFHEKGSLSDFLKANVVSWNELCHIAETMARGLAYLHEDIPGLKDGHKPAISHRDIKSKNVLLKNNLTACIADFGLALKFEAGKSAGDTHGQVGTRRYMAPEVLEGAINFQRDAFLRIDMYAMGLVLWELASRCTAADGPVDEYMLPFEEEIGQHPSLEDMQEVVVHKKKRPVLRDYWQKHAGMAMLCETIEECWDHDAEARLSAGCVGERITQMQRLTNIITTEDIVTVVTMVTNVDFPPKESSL
How it was run: as §1

FGFR3 = FGFR3 (Homo sapiens (Human), UniProt P22607); settings: read-out: % control
How it was run: as §1

Compound | remaining binding at 1 µM [1] [%] | remaining binding at 1 µM (VPS34) [%] | remaining binding at 1 µM (DMPK) [%] | remaining binding at 1 µM (WNK4) [%] | remaining binding at 1 µM (NEK4) [%] | remaining binding at 1 µM (YANK3) [%] | remaining binding at 1 µM (CAMK4) [%] | remaining binding at 1 µM (TYRO3) [%] | remaining binding at 1 µM (FLT3(D835Y)) [%] | remaining binding at 1 µM (YANK2) [%] | remaining binding at 1 µM (MINK) [%] | remaining binding at 1 µM (MLK1) [%] | remaining binding at 1 µM (PRKG1) [%] | remaining binding at 1 µM (FRK) [%] | remaining binding at 1 µM (LCK) [%] | remaining binding at 1 µM (ERN1) [%] | remaining binding at 1 µM (EPHA8) [%] | remaining binding at 1 µM (EPHA6) [%] | remaining binding at 1 µM (ERBB4) [%] | remaining binding at 1 µM (PIP5K2B) [%] | further results
CCNc1cc(Nc2ccc(C(=O)N3CCC(N4CCOCC4)CC3)cc2OC)nc2[nH]cc(C#N)c12 [Example 18, 4-(ethylamino)-6-((2-methoxy-4-(4-morpholinopiperidine-1-carbonyl)phenyl)amino)-1H-pyrrolo[2,3-b]pyridine-3-carbonitrile] | 100 | 96 | 81 | 79 | 86 | 96 | 76 | 80 | 82 | 100 | 55 | 100 | 64 | 94 | 96 | 24 | 85 | 98 | 85 | 87 | remaining binding at 1 µM (AURKA): 94%; remaining binding at 1 µM [2]: 100%; remaining binding at 1 µM (FLT3(N841I)): 89%; remaining binding at 1 µM (AXL): 98%; remaining binding at 1 µM (YSK4): 6.7%; remaining binding at 1 µM (MAP3K4): 96%; remaining binding at 1 µM (EGFR(G719S)): 80%; remaining binding at 1 µM (MYLK2): 72%; remaining binding at 1 µM (MERTK): 100%; remaining binding at 1 µM (ZAP70): 38%; remaining binding at 1 µM [3]: 100%; remaining binding at 1 µM (CAMK2D): 82%; remaining binding at 1 µM [4]: 71%; % control (FLT3(ITD)): 92%; remaining binding at 1 µM (PRKCE): 77%; remaining binding at 1 µM (CDK8): 100%; remaining binding at 1 µM [5]: 95%; remaining binding at 1 µM (ACVR2A): 100%; remaining binding at 1 µM (FGFR3): 93%
CCNc1cc(Nc2ccc(C(=O)N3CCC(N4CCOCC4)CC3)cc2OC)nc2[nH]cc(C(F)(F)F)c12 [Example 57, (4-((4-(ethylamino)-3-(trifluoromethyl)-1H-pyrrolo[2,3-b]pyridin-6-yl)amino)-3-methoxyphenyl) (4-morpholinopiperidin-1-yl)methanone] | 94 | 79 | 100 | 100 | 99 | 71 | 88 | 96 | 88 | 94 | 100 | 100 | 98 | 92 | 90 | 61 | 100 | 87 | 82 | 100 | remaining binding at 1 µM (AURKA): 83%; remaining binding at 1 µM [2]: 96%; remaining binding at 1 µM (FLT3(N841I)): 85%; remaining binding at 1 µM (AXL): 100%; remaining binding at 1 µM (YSK4): 100%; remaining binding at 1 µM (MAP3K4): 79%; remaining binding at 1 µM (EGFR(G719S)): 92%; remaining binding at 1 µM (MYLK2): 85%; remaining binding at 1 µM (MERTK): 91%; remaining binding at 1 µM (ZAP70): 100%; remaining binding at 1 µM [3]: 97%; remaining binding at 1 µM (CAMK2D): 47%; remaining binding at 1 µM [4]: 80%; % control (FLT3(ITD)): 79%; remaining binding at 1 µM (PRKCE): 64%; remaining binding at 1 µM (CDK8): 90%; remaining binding at 1 µM [5]: 54%; remaining binding at 1 µM (ACVR2A): 99%; remaining binding at 1 µM (FGFR3): 94%
